Values of other authors, collected in US7749527B2, “Gel compositions for control of ecto-parasites” (Wyeth LLC, priority 2005, dated 2010).

System: fleas and ticks
Conditions: companion animals

Structure (SMILES): N#Cc1ccc(CC(=NNC(=O)Nc2ccc(OC(F)(F)F)cc2)c2cccc(C(F)(F)F)c2)cc1 [Metaflumizone, (E Z)-2-[2-(4-cyanophenyl)-1-[3-(trifluoromethyl)phenyl]ethylidene]-N-[4-(trifluoromethoxy)phenyl]hydrazinecarboxamide]
- protection from fleas and ticks: 4-6 weeks
